# Measurements published in paper PMC3277506, “Extra-Renal Elimination of Uric Acid via Intestinal Efflux Transporter BCRP/ABCG2” (PLoS ONE, 2012).
# Like-named read-outs stand apart in the source and are kept apart here.
# Legend:
# [1] = tested on: Caco-2 cells; assay: Bidirectional transcellular transport of [14C]uric acid in Caco-2 cells; type: in vitro ADME, human; conditions: elacridar 2 µM, Ko143 1 µM, verapamil 100 µM, MK571 10 µM
# Protocol: Caco-2 cells were obtained from the American Type Culture Collection (Rockville, MD). Caco-2 cells were cultured in Dulbecco's modified Eagle's medium (D-MEM) (Invitrogen, Carlsbad, CA) supplemented with 10% (v/v) fetal bovine serum (Invitrogen), 100 units/mL benzylpenicillin, 100 µg/mL streptomycin, 1% (v/v) MEM non-essential amino acid solution (Invitrogen) at 37°C under an atmosphere of 5% CO2 in air. For bidirectional transport studies, Caco-2 cells were cultured on Transwell filter membrane inserts (BD Falcon, surface area 0.9 cm^2 and pore size 3 µm) at a density of 6.4×10^4 cells/cm^2 for 21 days before use for each experiment. […] Inhibitor was added to only apical side. Transport of [^14C]uric acid was measured in two directions, namely apical (AP)-to-basal (BL) and BL-to-AP directions. An aliquot of transport buffer was obtained from the donor side at 5 min for measurement of initial concentration, and from the receiver side at 30, 60, 90 and 120 min. Transport studies were performed at 37°C and pH 7.4.
# The apparent permeability (Papp, cm/sec) of [^14C]uric acid across the cell monolayer was calculated using the following equation: [drawing 4] where Q is the amount of [^14C]uric acid transported over time t. Cd is the initial concentration in the donor side and A is the surface area of membrane.
# [2] = target: T1, rBcrp (Rattus norvegicus, UniProt Q80W57); assay: [14C]uric acid uptake by rBcrp-expressing membrane vesicles; type: biochemical; set-up: purchased GenoMembrane Inc. (Yokohama, Japan); host or cells: Sf9 cells; conditions: [14C]uric acid uptake by vesicles, inhibitor concentrations only in Fig. 2C
# T1 sequence (Q80W57 1-657): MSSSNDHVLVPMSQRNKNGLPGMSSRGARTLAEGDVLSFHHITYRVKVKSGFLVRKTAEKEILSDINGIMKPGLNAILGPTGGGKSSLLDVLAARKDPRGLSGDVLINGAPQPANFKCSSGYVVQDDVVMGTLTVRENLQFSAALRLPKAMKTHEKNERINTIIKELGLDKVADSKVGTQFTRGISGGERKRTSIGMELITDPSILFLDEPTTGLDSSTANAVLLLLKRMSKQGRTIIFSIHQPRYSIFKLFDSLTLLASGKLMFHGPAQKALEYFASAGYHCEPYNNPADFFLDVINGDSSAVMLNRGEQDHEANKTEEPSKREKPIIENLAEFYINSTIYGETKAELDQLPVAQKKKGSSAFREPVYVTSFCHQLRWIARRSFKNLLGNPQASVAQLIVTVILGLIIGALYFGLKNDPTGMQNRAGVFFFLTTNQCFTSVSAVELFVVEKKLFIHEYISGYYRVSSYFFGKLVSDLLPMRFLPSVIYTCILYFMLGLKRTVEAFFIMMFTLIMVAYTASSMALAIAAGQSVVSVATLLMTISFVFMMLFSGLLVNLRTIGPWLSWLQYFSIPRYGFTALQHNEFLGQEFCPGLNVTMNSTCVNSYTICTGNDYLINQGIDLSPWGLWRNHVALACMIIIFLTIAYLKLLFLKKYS
# Protocol: hBCRP/rBcrp, hMRP2/rMrp2, or hMDR1-expressing membrane vesicles prepared from Sf9 cells were purchased from GenoMembrane Inc. (Yokohama, Japan). Uptake experiments were conducted as described previously. Briefly, after a pre-incubation for 5 min at 37°C, membrane vesicles (50 µg protein/50 µL final reaction volume) were incubated for 5 min at 37°C in the presence of 4 mM ATP or AMP in assay buffer (1 M KCl, 1 M MgCl2, and 100 mM MOPS-Tris, pH 7.0) containing [^14C]uric acid (1 µCi/mL). The uptake reaction was terminated by adding 1 mL ice-cold washing buffer (1 M KCl, and 100 mM MOPS-Tris, pH 7.0) to the membrane solution, and the mixture was rapidly filtered through a nitrocellulose filter (0.45 µm pore size, Millipore, Bedford, MA). The filters were washed twice with 5 mL ice-cold washing buffer. The filters were dried and dissolved in Clearsol-I for quantitation of radioactivity.
# [3] = cited from earlier work
# [4] = target: T1, rBcrp; assay: Effect of elacridar on intestinal secretion of uric acid, in situ intestinal closed loop method, oxonate-treated rats; type: in vivo; conditions: for Intestinal secretory clearance of uric acid, % of that in elacridar-untreated rats: 10 µM elacridar (Fig. 1A); for Intestinal secretory clearance of uric acid in the presence of elacridar: 10 µM elacridar, oxonate-treated rats
# Protocol: We evaluated intestinal secretion of endogenous uric acid according to the method described previously, with some modifications. Rats were anesthetized with 50% urethane and treated with oxonate by the same method as in the in vivo animal study described above. Intestinal closed loops were made at different segments: jejunum (10 cm), ileum (10 cm), and colon (3–5 cm). Phosphate-buffered solution (PB, 0.075 M NaH2PO4 - 0.075 M Na2HPO4, pH 6.5) or inhibitor-containing PB was injected into the intestinal loop. After 60 min, the remaining luminal content in each loop was washed out and collected for quantitation. Blood was obtained from the jugular vein at 1, 20, 40 and 60 min. Plasma was obtained by centrifugation and used for quantitation.
# The following equation was used to calculate intestinal secretory clearance (µL/min/cm loop) and estimated total intestinal secretory clearance (CLintestine, estimated) (mL/min): [drawing 1] [drawing 2] [drawing 3] where A is the amount of uric acid secreted into the intestinal lumen of each loop for 60 min, L is the length of the intestine, and AUC is area under the plasma concentration-time curve.
# [5] = substrate: O=c1[nH]c(=O)c2[nH]c(=O)[nH]c2[nH]1; assay: [14C]uric acid uptake by rBcrp-expressing membrane vesicles; type: biochemical, rat; conditions: other: ATP-dependent uptake, maximum uric acid concentration 5 mM; pH 7.0; 37.0 °C
molecule,measurement,setting,value
"CN(C)C(=O)CCSC(SCCC(=O)O)c1cccc(/C=C/c2ccc3ccc(Cl)cc3n2)c1 (centres unmarked) [MK571, reference compound]",Effect on polarized transport of uric acid across Caco-2 cell monolayer,[1],significantly reduced
C[C@]12CC[C@@H]3c4ccc(OS(=O)(=O)O)cc4CC[C@H]3[C@@H]1CCC2=O [estrone-3-sulfate],Inhibition of rBcrp-mediated transport of uric acid,[2],strongly inhibited
CCCCc1nc(Cl)c(CO)n1Cc1ccc(-c2ccccc2-c2nn[nH]n2)cc1 [losartan],Effect on SUA level,[3]; drugs in clinical use,decrease
O=C(O)c1ccccc1O [salicylic acid],Inhibition of rBcrp-mediated transport of uric acid,[2],not affected
same,Effect on SUA level,[3]; high dose,decrease
same,Effect on SUA level,[3]; low dose,increase
CC(C(=O)O)c1cccc(C(=O)c2ccccc2)c1 (centres unmarked) [ketoprofen],Inhibition of rBcrp-mediated transport of uric acid,[2],not affected
"COc1ccc2c3c([nH]c2c1)[C@H](CC(C)C)N1C(=O)[C@H](CCC(=O)OC(C)(C)C)NC(=O)[C@@H]1C3 [Ko143, reference compound]",Effect on polarized transport of uric acid across Caco-2 cell monolayer,[1],significantly reduced
same,Inhibition of rBcrp-mediated transport of uric acid,[2],strongly inhibited
COc1cc2c(cc1OC)CN(CCc1ccc(NC(=O)c3cccc4c(=O)c5cccc(OC)c5[nH]c34)cc1)CC2 [elacridar],"Intestinal secretory clearance of uric acid, % of that in elacridar-untreated rats",[4]; colon,30%
same,Intestinal secretory clearance of uric acid in the presence of elacridar,[4]; colon,0.23±0.04 µL/min/cm loop
same,"Ileal secretion of uric acid, % of the control","[4]; ileum, 0.1 µM elacridar (Fig. 3A)",53%
same,"Intestinal secretory clearance of uric acid, % of that in elacridar-untreated rats",[4]; ileum,52%
same,Intestinal secretory clearance of uric acid in the presence of elacridar,[4]; ileum,0.82±0.12 µL/min/cm loop
same,"Intestinal secretory clearance of uric acid, % of that in elacridar-untreated rats",[4]; jejunum,55%
same,Intestinal secretory clearance of uric acid in the presence of elacridar,[4]; jejunum,0.27±0.04 µL/min/cm loop
same,Effect on polarized transport of uric acid across Caco-2 cell monolayer,[1],significantly reduced
same,Inhibition of rBcrp-mediated transport of uric acid,[2],strongly inhibited
CO[C@H]1/C=C/O[C@@]2(C)Oc3c(C)c(O)c4c(O)c(c(/C=N/N5CCN(C)CC5)c(O)c4c3C2=O)NC(=O)/C(C)=C\C=C\[C@H](C)[C@H](O)[C@@H](C)[C@@H](O)[C@@H](C)[C@H](OC(C)=O)[C@@H]1C [rifampicin],Inhibition of rBcrp-mediated transport of uric acid,[2],moderately
"rBcrp (Rattus norvegicus) (protein, purchased GenoMembrane Inc. (Yokohama, Japan); host or cells: Sf9 cells) MSSSNDHVLVPMSQRNKNGLPGMSSRGARTLAEGDVLSFHHITYRVKVKSGFLVRKTAEKEILSDINGIMKPGLNAILGPTGGGKSSLLDVLAARKDPRGLSGDVLINGAPQPANFKCSSGYVVQDDVVMGTLTVRENLQFSAALRLPKAMKTHEKNERINTIIKELGLDKVADSKVGTQFTRGISGGERKRTSIGMELITDPSILFLDEPTTGLDSSTANAVLLLLKRMSKQGRTIIFSIHQPRYSIFKLFDSLTLLASGKLMFHGPAQKALEYFASAGYHCEPYNNPADFFLDVINGDSSAVMLNRGEQDHEANKTEEPSKREKPIIENLAEFYINSTIYGETKAELDQLPVAQKKKGSSAFREPVYVTSFCHQLRWIARRSFKNLLGNPQASVAQLIVTVILGLIIGALYFGLKNDPTGMQNRAGVFFFLTTNQCFTSVSAVELFVVEKKLFIHEYISGYYRVSSYFFGKLVSDLLPMRFLPSVIYTCILYFMLGLKRTVEAFFIMMFTLIMVAYTASSMALAIAAGQSVVSVATLLMTISFVFMMLFSGLLVNLRTIGPWLSWLQYFSIPRYGFTALQHNEFLGQEFCPGLNVTMNSTCVNSYTICTGNDYLINQGIDLSPWGLWRNHVALACMIIIFLTIAYLKLLFLKKYS",Km,[5],12.5 ± 0.77 mM
